From PubChem BioAssay (NCI)
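Results reflect a 48-hour exposure of cells in 96-well plates to compound at five concentrations. At the GI50, growth is halved. Definition used: TGI = concentration required for complete inhibition of growth.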 Active and inactive are the calls of the source. Cut-off read from the data, not from the text of the source: active = GI50 below about 0.43 µM; inactive = the rest.

How the values were obtained:
Experiment in all cases: DTP human tumour cell line panel, 48 h
DU-145 prostate = tested on: DU-145 prostate
HOP-62 NSCLC = tested on: HOP-62 NSCLC
K-562 leukemia = tested on: K-562 leukemia
M14 melanoma = tested on: M14 melanoma
MCF7 breast = tested on: MCF7 breast
MDA-MB-231 breast = tested on: MDA-MB-231 breast
SK-MEL-5 melanoma = tested on: SK-MEL-5 melanoma
SNB-75 CNS = tested on: SNB-75 CNS

For `CCCCCCCCn1ccc2cc(NC(=O)Cn3cc(CN4CCCC4)nn3)ccc21`, the GI50 (DU-145 prostate) was 3.12 µM, the TGI (DU-145 prostate) was 9.61 µM and the GI50 (HOP-62 NSCLC) was 1.75 µM. For the same compound, the TGI (HOP-62 NSCLC) was 3.49 µM, the GI50 (K-562 leukemia) was 1.91 µM and the TGI (K-562 leukemia) was 3.9 µM. The GI50 (M14 melanoma) was 1.79 µM, the TGI (M14 melanoma) was 3.35 µM and the GI50 (MCF7 breast) was 1.71 µM. The TGI (MCF7 breast) was 3.34 µM, the GI50 (MDA-MB-231 breast) was 1.84 µM and the TGI (MDA-MB-231 breast) was 3.49 µM. For the same compound, the GI50 (SK-MEL-5 melanoma) was 1.79 µM, the TGI (SK-MEL-5 melanoma) was 3.18 µM and the GI50 (SNB-75 CNS) was 1.52 µM. It also gave a TGI (SNB-75 CNS) of 2.93 µM.
`CC/C=C\C[C@@H](O)C/C=C1/C(=O)C=C[C@H]1C/C=C\CCCC(=O)OC` gave a GI50 (DU-145 prostate) of 3.33 µM, a TGI (DU-145 prostate) of 12.3 µM and a GI50 (HOP-62 NSCLC) of 3.31 µM. The TGI (HOP-62 NSCLC) was 9.8 µM, the GI50 (K-562 leukemia) was 0.987 µM and the TGI (K-562 leukemia) was 10.1 µM. It also gave a GI50 (M14 melanoma) of 2.39 µM, a TGI (M14 melanoma) of 8.38 µM and a GI50 (MCF7 breast) of 2.23 µM. For the same compound, the TGI (MCF7 breast) was 13.1 µM, the GI50 (MDA-MB-231 breast) was 6.06 µM and the TGI (MDA-MB-231 breast) was 20.5 µM. For the same compound, the GI50 (SK-MEL-5 melanoma) was 1.77 µM, the TGI (SK-MEL-5 melanoma) was 3.25 µM and the GI50 (SNB-75 CNS) was 6.17 µM. The TGI (SNB-75 CNS) was 19.6 µM.
With `COc1ccc(C(=O)C#Cc2cnc(OC)nc2OC)cc1` the TGI (DU-145 prostate) was 4.86 µM, the outcome (DU-145 prostate) was “inactive” and the TGI (HOP-62 NSCLC) was 30.7 µM. The outcome (HOP-62 NSCLC) was “inactive”, the GI50 (K-562 leukemia) was 12100 µM and the GI50 (M14 melanoma) was 27900 µM. The TGI (M14 melanoma) was 2.64 µM, the TGI (MCF7 breast) was 2.54 µM and the TGI (MDA-MB-231 breast) was 86700 µM. For the same compound, the GI50 (SK-MEL-5 melanoma) was 25600 µM, the TGI (SNB-75 CNS) was 4.8 µM and the outcome (SNB-75 CNS) was “inactive”.
`O=C(O)c1nn(-c2ccccc2-c2n[nH]c(=O)[nH]c2=O)c(=O)[nH]c1=O` was tested, and the TGI (DU-145 prostate) was > 100 µM, the TGI (HOP-62 NSCLC) was > 100 µM and the TGI (K-562 leukemia) was > 100 µM. For the same compound, the TGI (M14 melanoma) was > 100 µM, the TGI (MCF7 breast) was > 100 µM and the TGI (MDA-MB-231 breast) was > 100 µM. The TGI (SK-MEL-5 melanoma) was > 100 µM and the TGI (SNB-75 CNS) was > 100 µM.
`CC1CN1C(=O)NCCCCCCNC(=O)N1CC1C` (stereo not given) was tested, and the TGI (DU-145 prostate) was > 100 µM, the TGI (HOP-62 NSCLC) was > 100 µM and the TGI (K-562 leukemia) was > 100 µM. For the same compound, the TGI (M14 melanoma) was > 100 µM, the TGI (MCF7 breast) was > 100 µM and the TGI (MDA-MB-231 breast) was > 100 µM. For the same compound, the TGI (SK-MEL-5 melanoma) was > 100 µM and the TGI (SNB-75 CNS) was > 100 µM.
